Tests used:
[1] = target: T1, Substance-K receptor (Oryctolagus cuniculus) (UniProt P79218); test: Binding constant towards Tachykinin receptor 2 using BANK as agonist on rabbit pulmonary artery tissues.
T1 sequence (whole entry): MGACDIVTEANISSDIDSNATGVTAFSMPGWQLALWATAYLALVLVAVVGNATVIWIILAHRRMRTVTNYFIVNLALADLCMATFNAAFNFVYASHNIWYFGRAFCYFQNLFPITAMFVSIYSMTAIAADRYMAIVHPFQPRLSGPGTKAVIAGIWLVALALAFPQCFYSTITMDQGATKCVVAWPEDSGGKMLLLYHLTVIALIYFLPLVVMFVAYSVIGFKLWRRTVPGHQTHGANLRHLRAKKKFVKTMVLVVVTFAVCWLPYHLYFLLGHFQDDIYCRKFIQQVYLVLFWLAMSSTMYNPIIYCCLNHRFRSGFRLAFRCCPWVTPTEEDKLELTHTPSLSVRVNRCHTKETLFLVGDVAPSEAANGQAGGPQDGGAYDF

[2] = target: T2, Substance-K receptor (Homo sapiens) (UniProt P21452); settings: Bronchus
T2 sequence (whole entry): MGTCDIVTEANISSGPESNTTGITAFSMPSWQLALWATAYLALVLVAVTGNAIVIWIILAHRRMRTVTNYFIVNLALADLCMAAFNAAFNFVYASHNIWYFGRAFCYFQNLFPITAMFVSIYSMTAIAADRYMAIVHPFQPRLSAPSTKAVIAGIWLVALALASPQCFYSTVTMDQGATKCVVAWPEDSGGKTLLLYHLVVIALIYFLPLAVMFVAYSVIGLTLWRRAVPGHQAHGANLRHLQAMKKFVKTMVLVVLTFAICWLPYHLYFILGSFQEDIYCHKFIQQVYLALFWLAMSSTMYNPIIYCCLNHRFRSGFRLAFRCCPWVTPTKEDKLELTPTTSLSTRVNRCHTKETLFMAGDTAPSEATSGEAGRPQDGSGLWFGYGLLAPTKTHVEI
Description: Binding constant towards Tachykinin receptor 2 using NKA as agonist on human bronchus

Substance-P receptor [3] = target: T3, Substance-P receptor (Homo sapiens, UniProt P25103); settings: Artery
T3 sequence (P25103 whole entry): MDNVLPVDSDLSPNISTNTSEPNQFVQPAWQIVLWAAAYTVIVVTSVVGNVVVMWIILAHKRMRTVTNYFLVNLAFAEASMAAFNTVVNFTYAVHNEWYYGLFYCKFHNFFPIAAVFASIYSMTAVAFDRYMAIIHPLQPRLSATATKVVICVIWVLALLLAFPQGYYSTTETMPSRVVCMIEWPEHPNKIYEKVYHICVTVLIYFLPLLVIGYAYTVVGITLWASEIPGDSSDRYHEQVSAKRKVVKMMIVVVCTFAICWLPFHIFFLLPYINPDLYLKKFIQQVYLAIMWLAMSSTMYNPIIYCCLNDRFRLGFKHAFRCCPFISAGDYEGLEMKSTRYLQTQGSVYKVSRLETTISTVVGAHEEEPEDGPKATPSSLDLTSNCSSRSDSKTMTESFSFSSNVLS
Description: (§1) Binding constant towards Tachykinin receptor 1 using ASMSP as agonist on human pulmonary artery tissues

Substance-K receptor = target: T4, Substance-K receptor (Homo sapiens, UniProt P21452); test: Binding affinity against human cloned Tachykinin receptor 2 expressed in MEL cells; assay type: cell-based
T4 sequence (P21452 whole entry): T2 sequence (whole entry)

Neuromedin-K receptor = target: T5, Neuromedin-K receptor (Homo sapiens, UniProt P29371); test: Binding affinity against human cloned Tachykinin receptor 3 expressed in MEL cells; assay type: cell-based
T5 sequence (P29371 whole entry): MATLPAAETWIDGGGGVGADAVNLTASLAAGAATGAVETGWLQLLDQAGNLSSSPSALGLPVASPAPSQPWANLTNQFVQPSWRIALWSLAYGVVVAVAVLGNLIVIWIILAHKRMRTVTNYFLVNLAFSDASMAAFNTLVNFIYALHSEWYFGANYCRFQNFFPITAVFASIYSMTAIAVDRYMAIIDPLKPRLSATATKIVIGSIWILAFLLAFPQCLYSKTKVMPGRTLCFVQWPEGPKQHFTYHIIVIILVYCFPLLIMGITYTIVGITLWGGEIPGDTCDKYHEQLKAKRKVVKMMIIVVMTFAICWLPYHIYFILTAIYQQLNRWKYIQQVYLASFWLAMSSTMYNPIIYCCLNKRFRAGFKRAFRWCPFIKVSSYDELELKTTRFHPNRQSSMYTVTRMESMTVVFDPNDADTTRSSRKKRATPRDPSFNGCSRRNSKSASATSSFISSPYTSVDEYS

Rattus norvegicus [4] = test: Area under curve by intravenous administration at a dose of 10 uM/kg in rat was determined; assay type: ADME, organism-based; settings: in vivo
Rattus norvegicus [5] = test: Area under curve by oral administration at a dose of 100 uM/kg in rat was determined; assay type: ADME, organism-based; settings: in vivo
[6] = Maximum concentration by oral administration at a dose of 100 umol/kg in rat was determined; assay type: ADME, organism-based; design: dose 100 umol/kg, route oral; settings: in vivo
[7] = Maximum concentration by oral administration at a dose of 10 umol/kg in dog was determined; assay type: ADME, organism-based, Canis lupus familiaris; design: dose 10 umol/kg, route oral; settings: in vivo
[8] = Tmax by oral administration at a dose of 10 uM/kg in dog was determined; assay type: ADME, organism-based, Canis lupus familiaris; settings: in vivo
[9] = Plasma clearance in rat at a dose of 10 uM/kg in rat was determined; assay type: ADME, organism-based; settings: read-out: Clp
[10] = Half-life period by oral administration at a dose of 10 uM/kg in dog was determined; assay type: ADME, organism-based, Canis lupus familiaris; settings: in vivo
Canis familiaris [11] = test: Area under curve by intravenous administration at a dose of 1 uM/kg in dog was determined; assay type: ADME, organism-based, Canis lupus familiaris; settings: in vivo
[12] = Half life period at a dose of 10 uM/kg in rat was determined; assay type: ADME, organism-based; settings: in vivo
[13] = Bioavailability by oral administration at a dose of 10 uM/kg in dog was determined; assay type: ADME, organism-based, Canis lupus familiaris; settings: in vivo, read-out: Bioavailabiility
[14] = Volume distribution at a dose of 10 uM/kg in rat was determined; assay type: ADME, organism-based; settings: in vivo, read-out: Vdss
[15] = Tmax by oral administration at a dose of 100 uM/kg in rat was determined; assay type: ADME, organism-based; settings: in vivo
[16] = Half life period at a dose of 1 uM/kg in dog was determined; assay type: ADME, organism-based, Canis lupus familiaris; settings: in vivo
Substance-P receptor [17] = target: T3, Substance-P receptor; test: Binding affinity against human cloned Tachykinin receptor 1 expressed in MEL cells; assay type: cell-based
Canis familiaris [18] = test: Area under curve by oral administration at a dose of 10 uM/kg in dog was determined; assay type: ADME, organism-based, Canis lupus familiaris; settings: in vivo
[19] = Volume distribution at a dose of 1 uM/kg in dog was determined; assay type: ADME, organism-based, Canis lupus familiaris; settings: in vivo, read-out: Vdss
[20] = Bioavailability by oral administration at a dose of 100 uM/kg in rat was determined; assay type: ADME, organism-based; settings: in vivo, read-out: Bioavailabiility
Substance-P receptor [21] = target: T3, Substance-P receptor; settings: Artery; remark: listed apart in the source
Description: as §1

CN(C[C@@H](CCN1CCC(c2ccccc2[S@+](C)[O-])CC1)c1ccc(Cl)c(Cl)c1)C(=O)c1cc(C#N)cc2ccccc12 (stereo in doubt) [listing 1 of 2 here]
pKB [1]: 8.26 | pKB [2]: 7.5 | pKB (Substance-P receptor [3]): 8.9

CN(C[C@@H](CCN1CCC(c2ccccc2[S@+](C)[O-])CC1)c1ccc(Cl)c(Cl)c1)C(=O)c1cc(C#N)cc2ccccc12 (stereo in doubt) [listing 2 of 2 here]
Ki (Substance-K receptor): 600 pM | Ki (Neuromedin-K receptor): 74000 pM | AUC (Rattus norvegicus [4]): 3200 ng·h/mL | AUC (Rattus norvegicus [5]): 3010 ng·h/mL | Cmax [6]: 421 ng/mL | Cmax [7]: 364 ng/mL | Tmax [8]: 2 h | clearance [9]: 32.6 mL/min/kg | half-life [10]: 2.3 h | AUC (Canis familiaris [11]): 1100 ng·h/mL | half-life [12]: 1.8 h | bioavailability [13]: 18% | Vd [14]: 3.7 L/kg | Tmax [15]: 2 h | half-life [16]: 3.8 h | Ki (Substance-P receptor [17]): 100 pM | AUC (Canis familiaris [18]): 2000 ng·h/mL | Vd [19]: 2 L/kg | bioavailability [20]: 9%

COc1cc(C(=O)N2CC[C@](CCN3CCC(C(N)=O)(c4ccccc4)CC3)(c3ccc(Cl)c(Cl)c3)C2)cc(OC)c1OC
Ki (Substance-K receptor): 1000 pM | Ki (Neuromedin-K receptor): 200000 pM | pKB [1]: 6.7 | pKB (Substance-P receptor [21]): 6.9 | Ki (Substance-P receptor [17]): 300 pM | pKB [2]: 6.4
